Test results as given in patent US20120178147A1, “MICROBIAL CULTURES AND METHODS FOR ANAEROBIC BIOREMEDIATION” (priority 2009, published 2012).
Read-outs that look alike come from different tables or passages of the source.

Legend:
[1] = test system: general bacteria; test: qRT-PCR of general bacteria 16S rRNA genes in BDI cultures; assay type: cell-based; conditions: BDI with 1.5 μM TCC or 35 μM TCS
Method: Quantitative real-time PCR (qRT-PCR) was performed for enumeration of general 16S rRNA genes and Dehalococcoides 16S rRNA genes in culture DehaloR̂2 and Bio-Dechlor INOCULUM. The primers used for general 16S rRNA genes were Bac1055F (5′-ATG GYT GTC GTC ACCT-3′) and Bac1392R (5′-ACG GGC GGT GTG TAC-3′) (Ritalahti et al., 2006), and the probe was Bac16sTaq (FAM-CAA CGA GCG CAA CCC/3-BHQ-1/). The final volume of PCR reactions was 10 μL, and the final concentration of each chemical in a single reaction tube was: 1× RealMasterMix (Fisher Scientific, Pittsburgh, Pa.), 300 nM Probe, 300 nM each Primer, and 130 nM DNA samples. The PCR conditions were as follows: 2 min at 95° C. followed by 40 cycles of 10 s at 95° C., 20 s at 56° C. and 20 s at 68° C. The primers used for Dehalococcoides 16S rRNA genes were Dhc1200F (5′-CTGGAGCTAATCCCCAAAGCT-3′) and Dhc1271R (5′-CAA CTT CAT GCA GGC GGG-3′), and the probe was Dhc1240Pr (FAM-TCCTCAGTTCGGATTGCAGGC TGAA/3-BHQ-1) (He et al., 2003b). The final volume of PCR reactions was 10 μL, and the final concentration of each chemical in a single reaction tube was: 1× RealMasterMix (Fisher Scientific, Pittsburgh, Pa.), 200 nM Probe, 700 nM each Primer, and 130 nM DNA samples. The PCR conditions were as follows: 2 min at 95° C. followed by 40 cycles of 15 s at 95° C., 20 s at 58° C. and 20 s at 68° C.
Quantitative Real time PCR (qRT-PCR) was carried out in a spectrofluorimetric thermal cycler (Master cycler, epgradient S, Eppendorf). Calibration curves were performed in triplicate and a linear range of 6 orders of magnitude was obtained. Plasmids containing Dehalococcoides strain BAV1 16S rRNA genes were used as standards to construct general 16S rRNA genes and Dehalococcoides 16S rRNA genes calibration curves. The slopes of the calibration curves for general 16S rRNA genes and Dehalococcoides 16S rRNA genes were −3.46 and −3.94, and the Y intercepts were 38 and 44.2, respectively.
DNA Extraction and Quantitative Real-Time PCR. The BDI cultures and DehaloR^2 cultures were shaken vigorously first and then 10 ml of the mixed liquid was removed with a sterile syringe and dispensed into 10 1.5 ml micro centrifuge tubes. These micro centrifuge tubes were then centrifuged at 13,000 rpm for 15 min in order to make a pellet, and the pellet was used for DNA extraction. Qiagen DNeasy Blood & Tissue Kit with modifications to enhance lysis was used for DNA isolation from cultures. DNA samples were stored at −20° C.
Quantitative real-time PCR (qRT-PCR) was performed for enumeration of general 16S rRNA genes and Dehalococcoides 16S rRNA genes in BDI culture without TCC&TCS, BDI culture with 1.5 μM TCC, BDI culture with 35 μM TCS, D DehaloR̂2 culture without TCC&TCS, DehaloR^2 culture with 1.5 μM TCC and DehaloR̂2^2 culture with 35 μM TCS. […]

[2] = test system: Gram-positive bacteria, such as staphylococcus; conditions: cited from earlier work
[3] = test system: Gram-negative species and fungi; conditions: cited from earlier work
[4] = test system: MRSA; conditions: cited from earlier work
[5] = test system: E. coli; conditions: cited from earlier work
[6] = test system: P. aeruginosa; conditions: cited from earlier work
[7] = cited from earlier work
[8] = test system: algae, aquatic invertebrates and fish; conditions: cited from earlier work
[9] = test system: aquatic organisms; conditions: according to PBT Profiler; cited from earlier work
[10] = test system: Scenedesmus subspicatus; conditions: cited from earlier work
[11] = test system: Rainbow trout; conditions: in vivo; cited from earlier work
[12] = test system: North American bullfrog; conditions: alters thyroid hormone-mediated postembryonic development; cited from earlier work
[13] = continuous-flow activated sludge, 0.5 to 2 mg/L TCS (Stasinakis et al., 2007); cited from earlier work

Row | SMILES | General bacteria 16S rRNA gene copies, day 27 [1] | General bacteria 16S rRNA gene copies, initial [1] | concentration that effectively inhibits Gram-positive bacteria [2] [µg/L] | concentration needed to inhibit Gram-negative species and fungi [3] [mg/L] | activity in MIC experiments [4] | activity in MIC experiments [5] | activity in MIC experiments [6] | biodegradation ([7]; TCC 20 μg/L) [%] | biodegradation ([7]; TCC 2000 μg/L) [%] | biodegradation of the dichloroaniline ring ([7]; bench scale CFAS system) [%] | biodegradation of the p-chloroaniline ring ([7]; bench scale CFAS system) [%] | Predicted No Effect Concentration (PNEC) [8] [µg/L] | ratio of PEC/PNEC [8] | concentration toxic to aquatic organisms [9] [ng/mL] | 96-h effective concentration (EC50) for growth [10] [µg/mL] | 96-h no-observed effect concentration (NOEC) [10] [µg/L] | NOEC [11] [µg/L] | median EC50 [11] [µg/mL] | concentration acting as an endocrine disruptor [12] [ng/mL] | removed by biodegradation and sorption [13] [%]
1 | O=C(Nc1ccc(Cl)cc1)Nc1ccc(Cl)c(Cl)c1 [TCC, 3-(4-chlorophenyl)-1-(3,4-dichlorphenyl) urea] | 1.4×10^8 gene copies/ml | 7.2×10^7 gene copies/ml | 100 to 200 | 1000 | showed activity | not | not | 60 | 70 | 25.9 | 56 | 0.146 | 0.009 to 0.34 | 90000 | – | – | – | – | – | –
2 | Oc1cc(Cl)ccc1Oc1ccc(Cl)cc1Cl [TCS, 5-chloro-2-[2,4-dichloro-phenoxy]-phenol] | 3.3×10^8 gene copies/ml | 1.0×10^8 gene copies/ml | – | – | – | – | – | – | – | – | – | – | – | – | 0.0014 | 0.69 | 34 | 0.35 | 0.15 ± 0.03 | 90
